Where two headings read alike, the source gives them in different places.
How the values were obtained:
[1] = test system: genotype 1b Con1 HCV subgenomic replicons (Huh 5-2); assay: microbe, parasite or virus in culture; settings: for EC50: Hepatitis C virus, GETYPE1B, Huh-5-2, 72 h, read-out: EC50, effective concentration 50%
Experimental: The highly permissive cell clone Huh 7-Lunet, as well as Huh 7 cells containing subgenomic HCV replicons I389luc-ubi-neo/NS3-3′/5.1 (Huh 5-2), I377NS3-3′/wt (Huh 9-13) or I389/hygro-ubi-NS3-3/5.1 (a kind gift from Dr. V. Lohmann and Dr. R. Bartenschlager) have been described recently [25]-[28]. Cells were grown in Dulbecco’s modified Eagle’s medium (DMEM; Gibco, Belgium) supplemented with 10% heat-inactivated fetal bovine serum (PAN-Biotech GmbH, Germany), 1X non-essential amino acids (Gibco), 100 IU/mL penicillin (Gibco), 100 µg/mL streptomycin (Gibco), and 250 µg/mL geneticin (G418; Gibco).
Antiviral assays for assessing the efficacy of the selected compounds were performed as described in literature [23]–[28]. Briefly, Huh 5-2 cells were seeded at a density of 5⋅10^3 cells per well in a tissue culture-treated white 96-well view plate (Techno Plastic Products AG, Switzerland) in complete DMEM supplemented with 250 µg/mL G418. […] After 3 days of incubation at 37°C cell culture medium was removed and luciferase activity was determined using the Bright-Glo™ Luciferase Assay System (Promega Corporation, The Netherlands). The luciferase signal was measured using a Synergy HT Multimode Reader (BioTek Instruments Inc, USA).

[2] = in vitro; format: cell-based; settings: human
Experimental: Serial dilutions of the test compounds in complete DMEM (without G418) were added 24 hours after seeding. Cells were allowed to proliferate for 3 days at 37°C, after which the cell number was determined by CellTiter 96 AQueous One Solution Cell Proliferation Assay (Promega Corporation).

[3] = target: T1, NS3 protease wild-type (Zn^+2-free) (Hepatitis C virus genotype 1b, UniProt P26663); assay: biochemical; format: binding
T1 construct: The N-terminal domain from full-length NS3 protein corresponding to NS3 protease was expressed and purified; made in house
Experimental: (§1) The N-terminal domain from full-length NS3 protein corresponding to NS3 protease was expressed and purified as described elsewhere, [18].
(§2) Ligand binding to NS3 protease was determined with a high-sensitivity isothermal titration VP-ITC microcalorimeter (MicroCal, USA). Protein samples and reference solutions were properly degassed and carefully loaded into the cells to avoid bubble formation during stirring. Experiments were performed with freshly prepared buffer-exchanged protein solutions, at 25°C in 100 mM sodium acetate, 2 mM EDTA, pH 5. NS3 protease 20 µM solution in the calorimetric cell was titrated with compound 300 µM solution. Control experiments were performed under the same experimental conditions, except for the presence of zinc (no addition of EDTA). The heat evolved after each ligand injection was obtained from the integral of the calorimetric signal. The heat due to the binding reaction was obtained as the difference between the reaction heat and the corresponding heat of dilution, the latter estimated as a constant heat throughout the experiment, and included as an adjustable parameter in the analysis. The association constant (Ka) and the enthalpy change (ΔH) were obtained through non-linear regression of experimental data to a model for a protein with a single ligand binding site. Data were analyzed using software developed in our laboratory implemented in Origin 7 (OriginLab, USA).
(§3) NS3 protease wild-type, pseudo-wild-type (containing the inactivating mutation S139A) and several variants containing drug-resistance associated mutations (R155K, R155Q, A156T, and D168A) were employed for determining the impact of these mutations on the interaction of the selected compounds with the protein (change in dissociation constant).

[4] = target: T2, NS3 protease S139A (pseudo-wild-type) (Hepatitis C virus genotype 1b, UniProt P26663, S1165A); assay: ITC binding to Zn^+2-free NS3 protease, pseudo-wild-type S139A; settings: 25°C, 100 mM sodium acetate, 2 mM EDTA, pH 5; relative error 15%
T2 construct: The N-terminal domain from full-length NS3 protein corresponding to NS3 protease was expressed and purified; made in house
Experimental: as §1, §2, §3

[5] = target: T3, NS3 protease S139A/R155K (Hepatitis C virus genotype 1b, UniProt P26663, R1181K/S1165A); assay: ITC binding to Zn^+2-free NS3 protease, S139A/R155K; settings: 25°C, 100 mM sodium acetate, 2 mM EDTA, pH 5; relative error 15%
T3 construct: The N-terminal domain from full-length NS3 protein corresponding to NS3 protease was expressed and purified; made in house
Experimental: as §1, §2, §3

[6] = target: T4, NS3 protease S139A/R155Q (Hepatitis C virus genotype 1b, UniProt P26663, R1181Q/S1165A); assay: ITC binding to Zn^+2-free NS3 protease, S139A/R155Q; settings: 25°C, 100 mM sodium acetate, 2 mM EDTA, pH 5; relative error 15%
T4 construct: The N-terminal domain from full-length NS3 protein corresponding to NS3 protease was expressed and purified; made in house
Experimental: as §1, §2, §3

[7] = target: T5, NS3 protease S139A/A156T (Hepatitis C virus genotype 1b, UniProt P26663, A1182T/S1165A); assay: ITC binding to Zn^+2-free NS3 protease, S139A/A156T; settings: 25°C, 100 mM sodium acetate, 2 mM EDTA, pH 5; relative error 15%
T5 construct: The N-terminal domain from full-length NS3 protein corresponding to NS3 protease was expressed and purified; made in house
Experimental: as §1, §2, §3

[8] = target: T6, NS3 protease S139A/D168A (Hepatitis C virus genotype 1b, UniProt P26663, D1194A/S1165A); assay: ITC binding to Zn^+2-free NS3 protease, S139A/D168A; settings: 25°C, 100 mM sodium acetate, 2 mM EDTA, pH 5; relative error 15%
T6 construct: The N-terminal domain from full-length NS3 protein corresponding to NS3 protease was expressed and purified; made in house
Experimental: as §1, §2, §3

[9] = test system: NS3 protease; settings: assuming pseudo-first order association, from kobs of ref 23
[10] = target: NS3 protease; settings: read-out: apparent dissociation constant for the NS3-zinc interaction; cited from earlier work
[11] = target: NS3 protease; settings: read-out: dissociation constant for the NS3-zinc interaction; ITC, pH 5; cited from earlier work
[12] = test system: NS3 protease; settings: pH 7.5; cited from earlier work
[13] = ratio of CC50 to EC50 in Huh 5-2 cells
[14] = Huh 5-2 cells, 3 days proliferation, relative error 15%

T1 sequence (P26663 1027-1208): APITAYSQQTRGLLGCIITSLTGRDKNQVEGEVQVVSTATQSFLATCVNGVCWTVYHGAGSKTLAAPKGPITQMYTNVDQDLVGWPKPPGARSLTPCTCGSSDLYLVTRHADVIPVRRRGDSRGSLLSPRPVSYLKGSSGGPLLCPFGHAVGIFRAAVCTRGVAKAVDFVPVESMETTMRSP
T4 sequence (P26663 1027-1208 S1165A/R1181Q): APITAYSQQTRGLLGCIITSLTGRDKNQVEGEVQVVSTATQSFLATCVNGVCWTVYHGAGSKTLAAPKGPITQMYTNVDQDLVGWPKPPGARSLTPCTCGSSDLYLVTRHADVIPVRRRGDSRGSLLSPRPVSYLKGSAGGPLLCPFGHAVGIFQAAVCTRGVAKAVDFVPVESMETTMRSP
T2 sequence (P26663 1027-1208 S1165A): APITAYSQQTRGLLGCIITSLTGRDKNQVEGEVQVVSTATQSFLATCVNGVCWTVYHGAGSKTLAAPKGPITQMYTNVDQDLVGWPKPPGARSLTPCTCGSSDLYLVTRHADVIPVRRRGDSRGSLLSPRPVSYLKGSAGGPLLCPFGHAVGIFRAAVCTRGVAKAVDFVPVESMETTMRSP
T6 sequence (P26663 1027-1208 S1165A/D1194A): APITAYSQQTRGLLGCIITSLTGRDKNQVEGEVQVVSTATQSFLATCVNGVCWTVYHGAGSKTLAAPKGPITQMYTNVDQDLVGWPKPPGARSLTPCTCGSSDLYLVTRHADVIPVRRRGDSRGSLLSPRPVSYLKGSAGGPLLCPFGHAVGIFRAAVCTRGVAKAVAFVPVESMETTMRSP
T5 sequence (P26663 1027-1208 S1165A/A1182T): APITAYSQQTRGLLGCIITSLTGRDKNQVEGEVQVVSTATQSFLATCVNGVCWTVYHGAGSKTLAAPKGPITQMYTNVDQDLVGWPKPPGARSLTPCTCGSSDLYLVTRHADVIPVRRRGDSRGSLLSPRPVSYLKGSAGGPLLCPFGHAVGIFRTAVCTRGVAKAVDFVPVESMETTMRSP
T3 sequence (P26663 1027-1208 S1165A/R1181K): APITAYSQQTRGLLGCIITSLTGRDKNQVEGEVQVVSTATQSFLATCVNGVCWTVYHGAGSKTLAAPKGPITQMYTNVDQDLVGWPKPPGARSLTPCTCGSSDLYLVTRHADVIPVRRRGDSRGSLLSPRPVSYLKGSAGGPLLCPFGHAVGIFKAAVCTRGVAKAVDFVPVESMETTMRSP

| Compound | CC50/EC50 [1] | EC50 [1] [µM] | CC50 [2] [µM] | Kd [3] [µM] | Kd [4] [µM] | Kd [5] [µM] | Kd [6] [µM] | Kd [7] [µM] | Kd [8] [µM] | CC50/EC50 [1, 13] | CC50 [2, 14] [µM] | CC50 at 3 days [2, 14] [µM] | kon [9] [M⁻¹ s⁻¹] | Kd [10] [µM] | Kd [11] [µM] | apparent association rate constant, kobs [12] |
| --- | --- | --- | --- | --- | --- | --- | --- | --- | --- | --- | --- | --- | --- | --- | --- | --- |
| Nc1c2c(nc3ccccc13)CCCC2 [Compound 5] | >2 | 60 | > 120 | 1.7 | 5.5 | 5.9 | 32 | 27 | 8.5 |  |  |  |  |  |  |  |
| CC(=O)C1CCC2C3C=CC4=CC(=O)CCC4(C)C3CCC12C (centres unmarked) [Compound 7] |  | 2 |  | 16 | 5.7 | 16 | 4.2 | 5.8 | 6.5 | >60 | > 120 |  |  |  |  |  |
| CCOc1ccc(Cc2nccc3cc(OCC)c(OCC)cc23)cc1OCC [Compound 8] |  | 4 |  | 31 | 34 | 9.2 | 42 | 22 | 16 | 15 | 60 |  |  |  |  |  |
| COC(=O)Nc1nc2ccc(C(=O)c3cccs3)cc2[nH]1 [Compound 1] |  | 0.03 |  | 1.9 | 6.5 | 5.3 |  |  | 2.6 | >4000 | > 120 |  |  |  |  |  |
| COC(=O)[C@H]1[C@H]2C[C@@H]3c4[nH]c5cc(OC)ccc5c4CCN3C[C@H]2C[C@@H](OC(=O)/C=C/c2cc(OC)c(OC)c(OC)c2)[C@@H]1OC [Compound 6] |  | 20 |  | 40 | 24 | 61 | 23 | 45 | 36 | >6 | > 120 |  |  |  |  |  |
| CC[C@@]1(O)C(=O)OCc2c1cc1n(c2=O)Cc2cc3ccccc3nc2-1 [Compound 3] |  | 0.03 |  | 2.5 |  |  |  |  |  |  |  | 8 |  |  |  |  |
| zinc |  |  |  |  |  |  |  |  |  |  |  |  | < 1400 | ~1 | 0.5 | around 0.014 s^−1 |

From article PMC3728351, “Allosteric Inhibitors of the NS3 Protease from the Hepatitis C Virus” (PLoS ONE, 2013)
